Measured values published in PMC3024946, “Hydroxyproline-containing collagen analogs trigger the release and activation of collagen-sequestered proMMP-2 by competition with prodomain-derived peptide P33-42” (Fibrogenesis & Tissue Repair, 2011).
Entries after “also recorded” stand apart in the source; their conditions may differ.

How the values were obtained:
proMMP-2 / CI = target: T1, proMMP-2 / CI (Homo sapiens, UniProt P08253); assay: SPR, competition of proMMP-2 binding to CI, MMP activity buffer with Ro 28-2653
T1 construct: prodomain-containing proMMP-2 or proMMP-9; purchased Invitek
T1 sequence (P08253 30-660 limits assumed): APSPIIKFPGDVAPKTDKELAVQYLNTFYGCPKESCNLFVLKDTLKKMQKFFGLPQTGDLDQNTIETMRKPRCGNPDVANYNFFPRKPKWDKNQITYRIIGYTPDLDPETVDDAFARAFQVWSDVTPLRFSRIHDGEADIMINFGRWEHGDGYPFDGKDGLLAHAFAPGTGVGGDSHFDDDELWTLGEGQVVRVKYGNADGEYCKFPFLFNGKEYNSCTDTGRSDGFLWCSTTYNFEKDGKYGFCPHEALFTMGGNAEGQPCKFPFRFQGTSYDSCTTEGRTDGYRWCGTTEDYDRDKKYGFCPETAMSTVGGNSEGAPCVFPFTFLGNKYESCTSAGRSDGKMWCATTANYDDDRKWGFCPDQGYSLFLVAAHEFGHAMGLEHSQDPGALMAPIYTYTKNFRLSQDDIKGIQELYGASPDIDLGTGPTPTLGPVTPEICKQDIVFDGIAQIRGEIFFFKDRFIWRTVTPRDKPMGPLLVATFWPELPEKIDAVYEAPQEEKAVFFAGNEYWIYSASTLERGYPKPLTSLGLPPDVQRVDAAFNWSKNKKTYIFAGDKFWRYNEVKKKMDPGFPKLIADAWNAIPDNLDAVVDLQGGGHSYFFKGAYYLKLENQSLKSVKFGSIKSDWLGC
Procedure: (§1) Sensor chip preparations and SPR measurements were performed using a BiacoreX device and the Bia-evaluation software (version 3.2; Biacore, Uppsala, Sweden). The pepsin-resistant triple-helical part of human fibrillar CI (100 μg/ml) in 10 mM acetate coupling buffer, pH 4.8, was immobilized to a dextran matrix-sensor chip at a flow rate of 5 μl/min, resulting in 5,500 resonance units from CI covalently linked via its primary amino groups. The control flow cell was prepared using the coupling buffer without CI. Surfaces were activated and blocked as described previously. Immediately after thawing, pro- and actMMP-2 and pro- and actMMP-9 were diluted to 100 to 250 nM in MMP activity buffer or in PBS and 0.05% (vol/vol) Tween 20. For SPR measurements, flow rates were 10 μl/min at 25°C, and equilibrium was typically reached after 30 to 60 s. The effects of (GPO)10, GAP, (POG)5, (GPP)10 and P33-42 on MMP-2 and MMP-9 binding to CI and their enzymatic activity were determined by adding the binding competitors to the (pro- and act)MMP-2 and MMP-9 solution in 10- to 150-fold molar excesses. Effects independent of MMP-2 and MMP-9 activity were monitored in the presence of Ro 28-2653 (1 μM) during SPR analysis. The gelatinase inhibitor Ro 28-2653 was a generous gift from H.-W. Krell (Roche, Grenzach-Wyhlen, Germany). Sensor surfaces were regenerated with 10 mM glycine, pH 2.3, for 1 min between runs, and sensor chips were used up to 25 times. Kinetic parameters were analyzed using the 1:1 binding model with drifting baseline and subtraction of the control flow cell binding from sensorgrams obtained with immobilized CI. Binding constants (Kd) were calculated from the association (ka) and dissociation rates (kd) obtained from individual binding curves at different concentrations. Individual drifts of the resonance signal were fitted locally, and χ^2 values of 0.2% to 1.0% of the maximum resonance value were considered good fits.

ProMMP-2 [1] = assay: Substrate gel zymography of treated proMMP-2; format: biochemical, human; conditions: 50 ng proMMP-2, 2-h incubation at room temperature
Procedure: Samples containing MMP-2 were diluted with zymogram sample buffer (Bio-Rad, Munich, Germany) and separated on homogeneous 10% SDS-PAGE gels containing 1 mg/ml (wt/vol) gelatine (Bio-Rad), washed with excess MMP activity buffer containing 2.5% (vol/vol) Triton X-100 to remove SDS, and incubated with MMP activity buffer for 24 h. Gels were stained with Coomassie Blue R-250. Gels showing proteolytic bands corresponding to proMMP-2 (72 kDa) or actMMP-2 (62 kDa) were scanned (Plustek, Norderstedt, Germany) and analyzed from inverted grayscale images.

[2] = target: Col-3 module of the CBD of MMP-2; conditions: ref [7]; cited from earlier work
From the text: Finally, we asked how (GPO)10 competes CBD-mediated binding of proMMP-2 to fibrillar collagen and thereby modulates binding as well as enzymatic activity and activation. We made use of the P33-42 peptide derived from the prodomain of MMP-2. […] Even at high molar ...

MMP-9 = assay: Effect of P33-42 on MMP-9; format: biochemical; conditions: MMP devoid of prodomain-CBD interaction; data not shown
Procedure: (§2) Enzymatic activities of MMPs were studied spectrofluorimetrically by cleavage of fluorogenic substrates in MMP activity buffer within 2 to 5 h. For gelatinases 800 nM MCA-Pro-Leu-Gly-Leu-Dnp-Dap-Ala-Arg-NH2 (λex/em 328/393 nm; Bachem, Bubendorf, Switzerland) or 10 μg/ml DQ-gelatine were used, according to the method described by Knight et al. for collagenases 800 nM MCA-Pro-Cha-Gly-Nva-His-Ala-Dpa-NH2 (λex/em 280/360 nm; Anaspec, San José, CA, USA). In some experiments, proMMP-2 was fully activated in the presence of 1 mM APMA prior to the kinetic measurements. A quantity of 50 ng pro- or actMMP-2 alone or mixed with 10- to 150-fold molar excesses of (GPO)10, GAP, P33-42 or mixtures of (GPO)10 and P33-42, were added to CI-coated, BSA-coated (1 μg/well both) or uncoated wells containing 150 μl of the respective substrate solution. The peptide P33-42 was purchased from the Institute of Biochemistry (Humboldt-University, Berlin, Germany). The influence of CI on MMP-2 enzymatic activity against the quenched fluorescent substrate could be excluded. Background subtraction (measurement without MMPs) was applied to all curves. All experiments were performed with a fluorescence microplate reader (Molecular Devices, Sunnyvale, CA, USA) and black 96-well microtiter plates with a clear bottom (Greiner bio-one, Frickenhausen, Germany).

ProMMP-2 [3] = assay: DQ-gelatine degradation assay with MMP-2; format: biochemical, human; conditions: for DQ-gelatine cleavage by proMMP-2: 5 h at 25°C
Procedure: as §2

MMP-13 = assay: Effect of P33-42 on MMP-13; format: biochemical; conditions: MMP without CBD; data not shown
Procedure: as §2

[4] = In situ binding of MMPs to fibrotic liver sections; set-up: species or system human; conditions: immunohistochemistry; 25 ng MMP, 30 min
Procedure: Human cirrhotic liver cryostat sections (5 μm) were air-dried and fixed in ice-cold acetone for 10 min. Tissue sections were rehydrated with PBS and incubated with 25 ng/50 μl of the respective proMMP and actMMP for 30 min or were left untreated. After thorough washing with PBS, antibodies specific for human MMP-9 (clone MAB911; R&D Systems, Minneapolis, MN, USA) and human MMP-2 (clone 75-7F7; Oncogene, Cambridge, MA, USA) were applied, and primary antibody binding was detected using the alkaline phosphatase-antialkaline phosphatase detection system (Dako, Hamburg, Germany). An irrelevant primary mouse antibody served as control. Nuclei were counterstained with Hemalaun, and slides were examined by standard light microscopy.

collagen type I (CI) = assay: SPR binding of MMPs to immobilized CI, nonactivating buffer; set-up: species or system human
Procedure: as §1

Row | increase of Kd of proMMP-2 binding to CI (proMMP-2 / CI; high (up to 100-fold) molar excesses, 100-250 nM proMMP-2, 1 μM Ro 28-2653) | binding to liver sections [4] | binding to CI relative to proMMP-9 (collagen type I (CI); nonactivating conditions) | Off rate (collagen type I (CI); without (GPO)10, MMP 100 nM, PBS, 0.05% Tween 20, 25°C, mean from at least three experiments) [s⁻¹] | Kd (collagen type I (CI); without (GPO)10, MMP 100 nM, PBS, 0.05% Tween 20, 25°C, mean ± SD, at least three experiments) [µM] | Substance | competition with proMMP-2 binding to CI (proMMP-2 / CI; SPR, MMP activity buffer with Ro 28-2653) | substrate zymography, prodomain-free actMMP-2 band (ProMMP-2 [1]) | Kd [2] [µM] | effect on MMP (MMP-9) | DQ-gelatine cleavage by proMMP-2 (ProMMP-2 [3]; 50- to 100-fold molar excesses) | DQ-gelatine cleavage by proMMP-2 (ProMMP-2 [3]; 150-fold molar excess) | proMMP-2 activation (ProMMP-2 [3]; P33-42 alone, even at high molar excesses) | effect on inhibitory effect of (GPO)10 on MMP-2 activity (ProMMP-2 [3]; equimolar mixture of (GPO)10 and P33-42, 150-fold molar excess) | effect on (GPO)10-mediated activation of proMMP-2 (ProMMP-2 [3]; equimolar mixtures of (GPO)10 and P33-42, 50- to 100-fold molar excesses) | effect on MMP (MMP-13)
1 | up to 50% | – | – | – | – | P33-42: MMP-2 prodomain-derived CBD-binding peptide (PIIKFPGDVA) | competed with proMMP-2 binding to CI; also recorded: only slightly inhibited proMMP-2 binding to CI | did not occur | 1600 | no effects | no activating effect but a slight inhibitory effect | more enhanced inhibitory effect | did not activate proMMP-2; also recorded: did not affect proMMP-2 activation | the inhibitory effect of (GPO)10 on MMP-2 activity was diminished | prevented (GPO)10-mediated proMMP-2 activation; also recorded: drastically diminished the activating effect of (GPO)10 on proMMP-2; also recorded: blocked (GPO)10-mediated proMMP-2 activation | no effects
2 | – | No significant binding | sevenfold less effectively | 0.76 | 0.87 ± 0.39 | ActMMP-9: 86-kDa activated form of MMP-9 | – | – | – | – | – | – | – | – | – | –
